The target of experiment [1] is T1, gp130 extracellular domain (recombinant gp130-Fc-HA) (Homo sapiens, UniProt P40189).
T1 construct: purified gp130 (amino residue 18-615); made in house; host or cells: HEK293T (plasmid from Dr. John J. Krolewski)
T1 sequence (P40189 18-615): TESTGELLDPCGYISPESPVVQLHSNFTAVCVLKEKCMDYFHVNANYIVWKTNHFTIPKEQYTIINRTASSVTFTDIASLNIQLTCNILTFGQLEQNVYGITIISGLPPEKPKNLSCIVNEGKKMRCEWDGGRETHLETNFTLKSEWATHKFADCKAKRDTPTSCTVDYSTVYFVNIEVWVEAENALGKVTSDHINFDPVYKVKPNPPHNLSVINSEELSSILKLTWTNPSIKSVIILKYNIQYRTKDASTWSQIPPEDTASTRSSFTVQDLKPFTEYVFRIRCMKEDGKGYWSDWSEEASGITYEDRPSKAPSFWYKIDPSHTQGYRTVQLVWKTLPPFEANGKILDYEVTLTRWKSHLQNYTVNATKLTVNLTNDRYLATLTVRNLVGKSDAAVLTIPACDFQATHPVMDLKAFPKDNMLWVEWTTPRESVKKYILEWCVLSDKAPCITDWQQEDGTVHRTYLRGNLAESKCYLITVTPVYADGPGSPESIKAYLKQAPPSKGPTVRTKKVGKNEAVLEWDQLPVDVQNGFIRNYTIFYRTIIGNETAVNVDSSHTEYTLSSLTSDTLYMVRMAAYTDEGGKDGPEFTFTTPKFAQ
The experiment can be described thus: Surface plasmon resonance direct binding to gp130-Fc-HA. The settings on record: for binding in SPR direct binding assay, comparison in words: relative to MDL-A or to other analogues. As for the experimental part: HEK293T cells were grown in media containing DMEM+10% fetal bovine serum (FBS),100 U/ml penicillin and […] streptomycin (Invitrogen) in a humidified 37° C. incubator with 5% CO2. Plasmid DNA expressing gp130-Fc-HA was transfected in the form of calcium phosphate precipitate into HEK293T cells (ten T75 flasks containing 5.5×10^6 cells). The supernatant was harvested sixty hours post transfection and centrifuged to remove residual cells and adjusted to pH 8.0. The supernatant was passed through a 0.45 μm filter. The gp130-Fc-HA tagged protein was immunoprecipitated using anti-HA affinity matrix (Roche Applied Bioscience).A one milliliter column containing anti-HA affinity matrix was equilibrated with 20 mM Tris-HCl, 0.1M NaCl, 0.1 mM EDTA (pH 8.0). The supernatant was applied to the equilibrated column and the column was washed successively with 20 mM Tris-HCl, 1M NaCl (pH 8.0). Bound protein was eluted with HA peptide dissolved in equilibration buffer. The column was regenerated with 0.1 M glycine (pH 2.0). Fractions containing recombinant protein were pooled, dialyzed against HBS buffer [10 mM HEPES (pH 7.4), 0.15 M NaCl, 3 mM EDTA, 0.005% P20] and concentrated by Centricon 30 (Amicon) centrifugation. Protein concentration was determined using Bradford protein assay reagent (Pierce), with bovine serum albumin (BSA, Fisher Scientific) as a standard. The purified recombinant gp130 protein was analyzed using SDS-PAGE and immunoblotting.
Surface plasmon resonance (SPR) analysis was performed using BIAcore T100. Recombinant gp130-Fc-HA was cross-linked to the flow cell on a carboxymethylated dextran matrix of a CM5 sensor chip (BIAcore) using standard amino group coupling methods according to the manufacturer's instructions. Sodium acetate (10 mM, pH 3.5) gave the best immobilization of the protein on the chip surface and unreactive groups on the chip were blocked by ethanolamine according to the manufacturer's instructions. Approximately 5000 resonance units (RU) of gp130-Fc-HA were cross-linked to the flow cell. HBS+1% DMSO were used in all buffers (running and sample) to avoid background response due to differences in buffer refractive index. For the equilibrium analysis, various concentrations of MDL-A, 1, and 2 were injected for a period of 2 min at a flow rate of 30 μl/min, in series, into flow cells containing covalently bound gp130-fc-HA and reference flow cell. Bound ligand (MDL-A, 1, and 2) in each assay was removed by passing 10 mM glycine (pH 2.2) over the chip surface. Biacore T100 Evaluation 2.0 was used for all interaction analyses. The steady-state equilibrium response (RUeq) was determined from the reference-subtracted sensogram. The kinetics parameter was calculated according to a 1:1 Langmuir binding model (A+B ? AB) by direct fitting of ligand binding sensor grams at multiple concentrations. The dissociation equilibrium constant is defined as dissociation constant (KD)=dissociation rate constant (kd)/association rate constant (ka). KD was determined by scattered analysis of equilibrium-state data obtained at different concentrations of analogues.
To examine the direct binding and calculation of equilibrium dissociation constant (KD) of MDL-A analogues with gp130 extracellular domain, surface plasmon resonance analysis was done. Protein was covalently cross linked to the dextran matrix of the biosensor chip CM5. Successively, various concentrations of MDL-A and MDL-A analogues were injected into the flow cells containing bound protein and no protein (reference). Interactions were monitored in real time and KD values were calculated by reference-substrated sensogram.
To examine the direct binding and calculate the equilibrium dissociation constant (KD) of MDL-A analogues with gp130 extracellular domain, surface plasmon resonance analysis was performed. Surface plasmon resonance (SPR) analysis was performed using a BIAcore T100. […]
(Surface plasmon resonance follows binding to a sensor surface in real time, without labels.)

Experiment [2] has as its system Stat3 phosphorylation (p-Tyr705) induced by IL-6 in LNCaP prostate cancer cells. The experiment can be described thus: IL-6 induced Stat3 phosphorylation in LNCaP cells, Western blot. Type of experiment: cell-based. The conditions noted are these: for relative potency of inhibition of Stat3 phosphorylation: comparison in words; for inhibition of Stat3 phosphorylation induced by IL6: Western blot. The method, then: LNCaP prostate cancer cells were acquired from American Type Culture Collection. Cells were maintained in RPMI 1640 medium, 1× with 4.5 g/L L-glutamine, supplemented with 10% FBS, 100 U/ml penicillin and […] streptomycin (Invitrogen), in a humidified atmosphere of 5% CO2 at 37° C.
LNCaP prostate cancer cells were seeded in T75 flasks, grown to 50% confluence and serum-starved the following night. The cells were left untreated or were treated with MDL-A (100-400 μM), 1, 2 (5-40 μM) or DMSO in the absence of FBS. After 4 hours, the cells were stimulated with 12.5 ng/ml IL-6 (Cell Signaling Technology). The cells were then harvested at 30 minutes and washed with PBS and lysed in cold M-PER lysis buffer (Pierce) containing protease inhibitors (Sigma) and phosphatase inhibitors (Roche). Lysates were centrifuged at 14,000 rpm for 15 minutes at 4° C. and supernatants were collected and stored at −20° C. until further use.
Cell lysates were assayed for their protein concentrations using the Bradford protein assay reagent (Pierce), using BSA (Fisher Scientific) as the standard. Lysate samples were adjusted for the same protein concentration, approximately 5 μg of sample protein was loaded into each of the appropriate lanes. Protein samples were separated by SDS-PAGE and electrotransferred to PVDF membranes. The membranes were washed and blocked with 5% BSA in TBST (60 mM Tris-base, 120 mM NaCl, 0.1% Tween-20) for at least one hour and incubated with anti-phospho-STAT3 (p-Tyr705) antibody, anti-STAT3 antibody or anti-GAPDH antibody (all from Cell Signaling Technology) in 5% BSA in TBST overnight at 4° C. Blots were then washed three times in TBST and incubated with a horseradish peroxidase-conjugated goat anti-rabbit IgG secondary antibody (Cell Signaling Technology) in 5% BSA in TBST for 1 hour at room temperature. The bound antibody was detected using Enhanced Chemiluminescence detection reagents (Pierce) according to the manufacturer's instructions and chemiluminescence visualized using ECL Hyperfilm (Amersham).

Experiment [3] shares this test system. The description is as above. Format: cell-based. The settings on record: IL-6 12.5 ng/ml 30 min.
Experiment [4] concerns nuclear translocation of STAT3 in MCF-7 cells. The experiment can be described thus: Immunofluorescence of IL6-activated STAT3 nuclear translocation in MCF-7 cells. Format: cell-based.
The subject of experiment [5] is LIF mediated STAT3 phosphorylation. Nature of the experiment: LIF induced phosphorylation of STAT3 (FIG. 34). Format: cell-based.
Experiment [6] deals with IL6 mediated STAT3 phosphorylation. Nature of the experiment: IL6 induced phosphorylation of STAT3 (FIG. 34). Type of experiment: cell-based.
Experiment [7] relates to SUM-159 breast cancer cells tumor xenograft. The experiment can be described thus: Tumor xenograft model with SUM-159 breast cancer cells. Type of experiment: in vivo, human. The conditions noted are these: 100 mg/kg, SUM-159 xenograft, vehicle DMSO. An excerpt:
The effect of a representative compound, MDL-16, on tumor progression is compared to a group treated with vehicle (DMSO).

[8] abbreviates: gp130-Fc-HA on CM5 chip, BIAcore T100, read-out: SPR data (Kd μM).
Setting [9] is: gp130 extracellular domain, Biacore evaluation software 2.0, read-out: KD.

Entries after “also recorded” stand apart in the source; their conditions may differ. Where two headings read alike, the source gives them in different places.

The term Kd denotes the equilibrium constant for the complex coming apart. `CCCCc1ccc(OC)c(Cn2cc(CCO)c3ccccc32)c1OC` [MDL-8]: the Kd in experiment [1] (setting [8]) and in experiment [1] (setting [9]) was 41.4 µM throughout. Further, in experiment [1], the “binding in SPR direct binding assay, comparison in words” value (“binding in SPR direct binding assay” for short) is recorded as “better binding than MDL-A; also recorded: better activity than MDL-A”.
Turning to `CCCCn1nccc1C(=O)CN1c2ccccc2[C@]2(O)CCO[C@H]12` [MDL-3], the “binding in SPR direct binding assay” value in experiment [1] is listed as “better binding than MDL-A”.
For `CCCCc1ccc(O)c(Cn2cc(CCO)c3ccccc32)c1O` [MDL-6], the Kd in experiment [1] (setting [8]) and in experiment [1] (setting [9]) was 49.5 µM each time. For the same compound, the “binding in SPR direct binding assay” value in experiment [1] is “better binding than MDL-A; also recorded: better activity than MDL-A”. Moreover, the “relative potency of inhibition of Stat3 phosphorylation” value in experiment [2] is recorded as “slightly more potent than MDL-5”. In addition, the “inhibition of Stat3 phosphorylation induced by IL-6 at 40 µM” value (from here on “inhibition … at 40 µM”) in experiment [3] is given as “completely inhibit”.
On to `CCCCc1ccc(OC)c(CN2c3ccccc3[C@]3(O)C[C@H](COC(=O)c4ccccc4)O[C@H]23)c1OC` [MDL-17], for which, in experiment [1] (setting [8]), the Kd stood at 42.5 µM. In addition, the “binding in SPR direct binding assay” value in experiment [1] is reported as “stronger binding than analogues without extra attachments; also recorded: better binding than MDL-A; also recorded: better activity than MDL-A”.
Turning to `CCCCc1ccc(O)c(Cn2cc(CCO)c3cc(C(=O)OC)ccc32)c1O` [MDL-7], the Kd in experiment [1] (setting [8]) and in experiment [1] (setting [9]) was 40.8 µM in each case. Moreover, the “binding in SPR direct binding assay” value in experiment [1] is on record as “better binding than MDL-A; also recorded: better activity than MDL-A”. Also, in experiment [2], the “relative potency of inhibition of Stat3 phosphorylation” value is “slightly more potent than MDL-5”. Also, the “inhibition … at 40 µM” value in experiment [3] is on record as “completely inhibit”.
Turning to `CCCCc1ccc(O)c(CN2c3ccccc3[C@]3(O)C[C@H](COC(=O)c4ccccc4)O[C@H]23)c1O` (stereo in doubt) [MDL-5, ((2S,3AR)-8-(3-butyl-2,6-Dihydroxybenzyl)-3A-Hydroxy-3,3A,8,8A-Tetrahydro-2H-Furo[2,3-B]Indol-2-Yl)Methyl Benzoate], the Kd in experiment [1] (setting [8]) and in experiment [1] (setting [9]) was 37 µM throughout. The “binding in SPR direct binding assay” value in experiment [1] is “stronger binding than analogues without extra attachments; also recorded: better binding than MDL-A; also recorded: better activity than MDL-A”. For the same compound, the “nuclear translocation of STAT3 activated by IL6” value in experiment [4] was “inhibits the nuclear translocation of STAT3”. Also, the “inhibition of Stat3 phosphorylation induced by IL6” value in experiment [2] (IL-6 12.5 ng/ml 30 min) is “dose dependent inhibition”.
As to `CCCCc1ccc(O)c(Cn2cc(C[C@H](O)COC(=O)c3ccccc3)c3ccccc32)c1O` [MDL-16, (S)-3-(1-(3-Butyl-2,6-Dihydroxybenzyl)-1H-Indol-3Yl)-2-Hydroxypropyl Benzoate], the “LIF mediated STAT3 phosphorylation” value in experiment [5] is reported as “not LIF mediated STAT3 phosphorylation”. Further, in experiment [6], the “IL6 mediated STAT3 phosphorylation” value was “inhibits IL6 mediated STAT3 phosphorylation”. The dissociation constant (Kd) in experiment [1] (setting [8]) was determined as 29 µM; in experiment [1] (values in running text and figure legend, read-out: dissociation constant (KD)), 29.7 µM. Also, in experiment [1], the “binding in SPR direct binding assay” value is “stronger binding than analogues without extra attachments; also recorded: strongest binding affinity; also recorded: better binding than MDL-A; also recorded: better activity than MDL-A”. Also, the “effect on tumor progression compared to vehicle” value in experiment [7] is “significant effect on tumor progress compared to vehicle”. Besides, in experiment [4], the “nuclear translocation of STAT3 activated by IL6” value was “inhibits the nuclear translocation of STAT3”. Besides, in experiment [2] (40 μM compound 4 hours, IL-6 12.5 ng/ml 30 min), the “inhibition … at 40 µM” value is “completely inhibits”. For the same compound, in experiment [2] (IL-6 12.5 ng/ml 30 min), the “inhibition of Stat3 phosphorylation induced by IL6” value is listed as “dose dependent inhibition”. Besides, in experiment [2], the “relative potency of inhibition of Stat3 phosphorylation” value was “slightly more potent than MDL-5”.

For the origin of these results see patent US20140315956A1, “SMALL MOLECULE INHIBITORS OF IL-6 AND USES THEREOF” (NATIONWIDE CHILDREN'S HOSPITAL, priority 2011, published 2014).
